Measured values reported in ChEMBL document CHEMBL2390878, “Novel 1H-imidazol-2-amine derivatives as potent and orally active vascular adhesion protein-1 (VAP-1) inhibitors for diabetic macular edema treatment” (Bioorg Med Chem, 2013).
Active and inactive are the calls of the source. No cut-off for these calls is given here.

Assays:
[1] = target: T1, Amine oxidase [copper-containing] 3 (Homo sapiens, UniProt Q16853); test: Inhibition of human VAP-1 expressed in CHO cells using [14C]-benzylamine as substrate preincubated for 30 mins prior to substrate addition measured after 1 hr by scintillation spectrometric analysis; assay type: cell-based
T1 sequence (Q16853 whole entry): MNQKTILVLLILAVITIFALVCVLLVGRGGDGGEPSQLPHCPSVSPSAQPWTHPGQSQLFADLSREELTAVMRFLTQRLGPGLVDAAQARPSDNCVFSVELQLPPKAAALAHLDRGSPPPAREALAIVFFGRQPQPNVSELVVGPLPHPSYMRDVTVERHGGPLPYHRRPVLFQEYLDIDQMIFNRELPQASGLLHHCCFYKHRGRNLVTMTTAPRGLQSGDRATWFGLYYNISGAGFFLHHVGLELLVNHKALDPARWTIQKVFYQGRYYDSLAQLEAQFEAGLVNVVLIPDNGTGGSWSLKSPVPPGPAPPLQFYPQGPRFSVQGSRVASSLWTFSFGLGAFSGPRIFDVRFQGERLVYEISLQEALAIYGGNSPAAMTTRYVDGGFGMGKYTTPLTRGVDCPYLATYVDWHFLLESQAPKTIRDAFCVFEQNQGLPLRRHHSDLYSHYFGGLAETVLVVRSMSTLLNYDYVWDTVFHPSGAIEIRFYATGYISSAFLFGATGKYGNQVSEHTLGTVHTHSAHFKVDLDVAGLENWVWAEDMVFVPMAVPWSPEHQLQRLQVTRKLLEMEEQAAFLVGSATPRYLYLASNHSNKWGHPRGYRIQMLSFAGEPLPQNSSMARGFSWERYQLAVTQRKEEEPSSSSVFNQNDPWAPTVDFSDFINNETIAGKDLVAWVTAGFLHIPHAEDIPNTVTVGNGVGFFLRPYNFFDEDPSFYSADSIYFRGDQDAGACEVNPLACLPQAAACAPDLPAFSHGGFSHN

[2] = target: T2, Amine oxidase [copper-containing] 3 (Rattus norvegicus, UniProt O08590); test: Inhibition of rat VAP-1 expressed in CHO cells using [14C]-benzylamine as substrate preincubated for 30 mins prior to substrate addition measured after 1 hr by scintillation spectrometric analysis; assay type: cell-based
T2 sequence (O08590 whole entry): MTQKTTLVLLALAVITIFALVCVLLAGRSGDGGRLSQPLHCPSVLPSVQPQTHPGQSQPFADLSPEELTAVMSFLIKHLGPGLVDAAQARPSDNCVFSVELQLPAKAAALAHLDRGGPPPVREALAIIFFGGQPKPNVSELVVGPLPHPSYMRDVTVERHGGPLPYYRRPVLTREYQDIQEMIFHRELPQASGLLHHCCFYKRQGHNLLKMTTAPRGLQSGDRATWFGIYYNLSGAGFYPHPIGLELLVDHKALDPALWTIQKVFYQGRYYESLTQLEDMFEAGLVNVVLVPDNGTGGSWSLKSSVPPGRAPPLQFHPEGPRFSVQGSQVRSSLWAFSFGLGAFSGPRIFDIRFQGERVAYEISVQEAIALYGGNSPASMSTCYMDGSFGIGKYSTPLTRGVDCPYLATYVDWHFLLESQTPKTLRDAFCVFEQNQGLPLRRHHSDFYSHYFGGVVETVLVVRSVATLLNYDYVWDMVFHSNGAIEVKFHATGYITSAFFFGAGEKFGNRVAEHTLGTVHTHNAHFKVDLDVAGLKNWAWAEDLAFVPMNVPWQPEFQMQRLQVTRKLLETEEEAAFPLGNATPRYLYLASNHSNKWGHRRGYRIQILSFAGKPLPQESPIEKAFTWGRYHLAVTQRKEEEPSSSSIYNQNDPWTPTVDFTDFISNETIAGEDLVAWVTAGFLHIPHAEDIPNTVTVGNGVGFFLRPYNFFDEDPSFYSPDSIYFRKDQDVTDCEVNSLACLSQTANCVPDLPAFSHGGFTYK

Homo sapiens [3] = species on record: Homo sapiens; test: Selectivity ratio of IC50 for human recombinant MAO-B to IC50 for human VAP-1
Rattus norvegicus [4] = test: Inhibition of ocular permeability in streptozotocin-induced diabetic Sprague-Dawley rat at 10 mg/kg, po administered for 2 weeks after streptozotocin-challenge measured 24 hrs after final administration of compound; assay type: functional, organism-based; design: dose 10 mg/kg; settings: Eye
Homo sapiens [5] = species on record: Homo sapiens; test: Selectivity ratio of IC50 for human recombinant MAO-A to IC50 for human VAP-1
[6] = target: T3, Amine oxidase [flavin-containing] A (Homo sapiens, UniProt P21397); test: Inhibition of human recombinant MAO-A using 5-hydroxytryptamine as substrate after 1 hr by fluorometric assay
T3 sequence (P21397 whole entry): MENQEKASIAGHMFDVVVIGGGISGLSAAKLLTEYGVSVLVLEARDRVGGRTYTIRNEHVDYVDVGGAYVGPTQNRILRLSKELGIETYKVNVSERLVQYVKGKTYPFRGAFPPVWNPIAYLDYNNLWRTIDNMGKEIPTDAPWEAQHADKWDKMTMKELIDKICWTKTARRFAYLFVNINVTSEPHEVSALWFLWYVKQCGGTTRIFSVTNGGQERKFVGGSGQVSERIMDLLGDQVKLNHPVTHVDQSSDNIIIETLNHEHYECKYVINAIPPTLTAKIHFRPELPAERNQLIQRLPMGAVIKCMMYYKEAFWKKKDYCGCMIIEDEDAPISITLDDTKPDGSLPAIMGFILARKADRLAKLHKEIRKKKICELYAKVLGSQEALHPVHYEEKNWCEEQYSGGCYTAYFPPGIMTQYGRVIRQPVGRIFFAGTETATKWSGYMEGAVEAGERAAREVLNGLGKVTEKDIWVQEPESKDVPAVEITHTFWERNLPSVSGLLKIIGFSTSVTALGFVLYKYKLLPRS

Rattus norvegicus [7] = test: Inhibition of VAP-1 in streptozotocin-induced diabetic Sprague-Dawley rat plasma using [14C]-benzylamine as substrate at 10 mg/kg, po administered for 2 weeks after streptozotocin-challenge by scintillation spectrometric analysis; assay type: functional, organism-based; design: dose 10 mg/kg
[8] = target: T4, Amine oxidase [flavin-containing] B (Homo sapiens, UniProt P27338); test: Inhibition of human recombinant MAO-B using benzylamine as substrate after 1 hr by fluorometric assay
T4 sequence (P27338 whole entry): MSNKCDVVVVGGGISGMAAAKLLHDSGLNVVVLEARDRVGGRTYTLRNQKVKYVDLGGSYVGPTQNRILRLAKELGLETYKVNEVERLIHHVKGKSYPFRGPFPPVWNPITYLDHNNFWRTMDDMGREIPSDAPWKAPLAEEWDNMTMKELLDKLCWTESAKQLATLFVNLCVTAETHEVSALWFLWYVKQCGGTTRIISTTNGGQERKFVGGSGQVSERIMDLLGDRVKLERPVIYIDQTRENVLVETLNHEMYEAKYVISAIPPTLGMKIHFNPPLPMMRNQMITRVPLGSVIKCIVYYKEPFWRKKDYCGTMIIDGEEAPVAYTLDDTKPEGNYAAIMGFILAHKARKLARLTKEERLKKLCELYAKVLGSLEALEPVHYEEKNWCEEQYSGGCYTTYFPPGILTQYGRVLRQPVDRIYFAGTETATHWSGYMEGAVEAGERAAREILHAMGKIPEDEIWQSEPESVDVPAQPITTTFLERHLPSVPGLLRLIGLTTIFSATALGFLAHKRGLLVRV

Compound | IC50 [1] [µM] | IC50 [2] [µM] | further results
Nc1nc(-c2ccccc2)c[nH]1 | > 100 | 44 | –
N=C(N)Nc1ccccc1 [PHENYLGUANIDINE] | > 100 | 78 | –
c1ccc(NC2=NCCN2)cc1 | > 100 | > 100 | –
CC(=O)Nc1nc(CCc2ccc(-c3c[nH]c(N)n3)cc2)cs1 | 13 | 0.15 | –
Nc1nc(Cc2ccccc2)c[nH]1 | 32 | 0.42 | –
c1ccc2[nH]cnc2c1 [BENZIMIDAZOLE] | > 100 | > 100 | –
Nc1ncc[nH]1 | > 100 | 90 | –
Nc1cc2ccccc2[nH]1 | > 100 | 63 | –
Cc1ccc2nc(N)[nH]c2c1 | > 100 | 9.3 | –
Nc1nc2ccccc2[nH]1 | 4.1 | 1 | –
CC(=O)Nc1nc(CCc2ccc(NC(=N)N)cc2)cs1 | – | – | IC50 [6]: > 100 µM; IC50 [8]: 60 µM

Second part, led by results:

IC50 [1] [µM] | IC50 [2] [µM] | Compound | further results
2.2 | 0.018 | CC(=O)Nc1nc(CCc2ccc(CCc3c[nH]c(N)n3)cc2)cs1 | –
> 100 | > 100 | NC1=NCCN1c1ccccc1 | –
> 100 | 80 | Cn1c(N)nc2ccccc21 | –
> 100 | 4.8 | Nc1ncc(CCc2ccccc2)[nH]1 | –
> 100 | > 100 | NCc1nc2ccccc2[nH]1 | –
> 100 | 1 | Cc1cccc2[nH]c(N)nc12 | –
0.019 | 0.0051 | CC(=O)Nc1nc(CCc2ccc(Cc3c[nH]c(N)n3)cc2)cs1 | Ratio IC50 (Homo sapiens [3]): > 580; inhibition (Rattus norvegicus [4]): Active; Ratio IC50 (Homo sapiens [5]): > 580; IC50 [6]: > 100 µM; inhibition (Rattus norvegicus [7]): Active; IC50 [8]: 11 µM
